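Tested at 5 concentrations; 48 h exposure; 96-well plates; endpoints linearly interpolated, else capped at highest concentration. GI50: concentration for 50% inhibition of growth. TGI denotes the concentration required for complete inhibition of growth.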
Legend:
Test in all cases: NCI-60 cell line screen, 48 h
MDA-MB-231 breast = test system: MDA-MB-231 breast
MALME-3M melanoma = test system: MALME-3M melanoma
SNB-75 CNS = test system: SNB-75 CNS
OVCAR-8 ovarian = test system: OVCAR-8 ovarian
OVCAR-3 ovarian = test system: OVCAR-3 ovarian
BT-549 breast = test system: BT-549 breast
HCC-2998 colon = test system: HCC-2998 colon
SR leukemia = test system: SR leukemia
NCI-H460 lung = test system: NCI-H460 lung
A498 renal = test system: A498 renal

Row | Compound | GI50 (MDA-MB-231 breast) | TGI (MDA-MB-231 breast) | GI50 (MALME-3M melanoma) | TGI (MALME-3M melanoma) | GI50 (SNB-75 CNS) | TGI (SNB-75 CNS) | GI50 (OVCAR-8 ovarian) | TGI (OVCAR-8 ovarian) | GI50 (OVCAR-3 ovarian) | TGI (OVCAR-3 ovarian) | GI50 (BT-549 breast) | TGI (BT-549 breast) | GI50 (HCC-2998 colon) | TGI (HCC-2998 colon) | GI50 (SR leukemia) | TGI (SR leukemia) | GI50 (NCI-H460 lung) | TGI (NCI-H460 lung) | GI50 (A498 renal) | TGI (A498 renal)
1 | Cc1cc(C)c(C(=O)CC(=O)c2cccnc2)c(C)c1 | 11.2 µM | > 100 µM | 14.1 µM | > 100 µM | 26.6 µM | > 100 µM | 4.58 µM | > 100 µM | 5.78 µM | 77.4 µM | 2.25 µM | 33.9 µM | 12.8 µM | > 100 µM | 2.81 µM | 33.2 µM | 3.39 µM | 82.9 µM | 18.8 µM | 94.1 µM
2 | O=C(Nc1ccc(Cl)cc1)c1cc(-c2ccc(F)cc2)c2sc(=O)[nH]c2n1 | 1.77 µM | 4.78 µM | 1.7 µM | 6.8 µM | 2.02 µM | 5.33 µM | 1.72 µM | 4.93 µM | 0.944 µM | 11.4 µM | 1.73 µM | 6.88 µM | 2.25 µM | 10.9 µM | 0.672 µM | 10.5 µM | 1.73 µM | 4.29 µM | 0.465 µM | 3.35 µM
3 | COc1ccc2c(c1)C=C([N+](=O)[O-])C(C1OC(C)(C)OC1C1COC(C)(C)O1)O2 (configuration not stated) |  | 6.6 µM |  | 6.15 µM |  | 28.2 µM |  | 11.4 µM |  | 21.8 µM |  | 12.6 µM |  | 27.7 µM |  | 6.93 µM |  | 13.6 µM |  | 33.3 µM
4 | CCOC(=O)c1c(CN2CCN(c3ccccc3)CC2)n(-c2ccccc2)c2cc(Br)c(O)cc12 | 15.7 µM | 33.1 µM | 16.5 µM | 40.1 µM | 17.7 µM | 90.5 µM | 9.32 µM | 57 µM | 13 µM | 32.1 µM | 8.64 µM | 23.9 µM | 15.7 µM | 32.5 µM | 3.82 µM | > 100 µM | 3.61 µM | 21.3 µM | 12.7 µM | 26.8 µM
5 | CN/N=C(/CCN1CCCC1)CC(c1ccccc1)c1c(O)c2ccccc2oc1=O (configuration not stated) |  | > 100 µM |  | > 100 µM |  | > 31.6 µM |  | > 100 µM |  | > 100 µM |  | > 100 µM |  | > 100 µM |  | > 100 µM |  | > 100 µM |  | > 100 µM
6 | COc1cc2oc(-c3ccc(O)cc3)cc(=O)c2c(OC)c1OC |  | > 100 µM |  | > 100 µM |  | > 100 µM |  | > 100 µM |  | > 100 µM |  | > 100 µM |  | > 100 µM |  | > 100 µM |  | > 100 µM |  | > 100 µM
7 | CCN(CC)c1ccc(C(=N)c2ccc(N(CC)CC)cc2)cc1 | 1.15 µM | 3.23 µM | 0.714 µM | 2.48 µM | 0.849 µM | 6.89 µM | 0.905 µM | 3.75 µM | 0.27 µM | 0.995 µM | 1.16 µM | 5.78 µM | 1.1 µM | 3.17 µM | 0.28 µM | 1.2 µM | 0.411 µM | 1.56 µM | 0.575 µM | 2.38 µM
8 | O=C(N/N=C/c1cccc(O)c1O)c1ccccc1 | 0.495 µM | > 100 µM | 1.35 µM | 35.8 µM | 4.66 µM | 85.6 µM | 0.587 µM | > 100 µM | 0.369 µM | > 100 µM | 1.84 µM | > 73 µM | 3.2 µM | > 100 µM | 0.412 µM | > 76 µM | 0.878 µM | > 100 µM | 6.28 µM | 65.4 µM
9 | COc1cc(OC)c(/C=C/C(=O)c2c(OC)cccc2OC)c(OC)c1 | 1.07 µM | > 100 µM | 0.45 µM | > 100 µM | 0.339 µM |  | 1.43 µM | > 100 µM | 0.431 µM |  | 0.3 µM | 1.84 µM | 1.15 µM | 6.91 µM | 0.517 µM | > 100 µM | 0.393 µM | > 20.3 µM | 0.308 µM | 
10 | COC(=O)Nc1nc2ccc(Oc3ccc(NC(=O)Nc4ccccc4)cc3)cc2[nH]1 | 0.32 µM | 10.3 µM | 0.14 µM | > 11.4 µM | 0.115 µM | 7.15 µM | 0.545 µM | 8.04 µM | 0.0713 µM | 0.205 µM | 1.61 µM | 11.8 µM | 0.458 µM | > 17.7 µM | 0.0744 µM | > 8.46 µM | 0.129 µM | 2.71 µM | 0.141 µM | 4.97 µM
11 | CC/C=C\C[C@@H]1C/C=C2/C(=O)C=C[C@H]2C/C=C\CCCC(=O)O1 | 1.56 µM | 6.59 µM | 1.18 µM | 4.65 µM | 1.18 µM | 2.6 µM | 0.342 µM | 2.37 µM | 0.428 µM | 1.38 µM | 0.89 µM | 2.23 µM | 0.259 µM | 0.533 µM | 0.17 µM | 0.731 µM | 2.67 µM | 7.45 µM | 1.81 µM | 3.3 µM
12 | CCCCN=C(N)c1ccc(OCCSCCOc2ccc(C(N)=NCCCC)cc2)cc1 | 16.9 µM | > 100 µM | 2.97 µM | 26.4 µM | 1.09 µM | 16.2 µM | 10.5 µM | > 100 µM | 4.97 µM | > 100 µM | 1.97 µM | 13.3 µM | 5.87 µM | > 100 µM | 3.13 µM | 53.7 µM | 3.17 µM | > 100 µM | 15.2 µM | > 100 µM
13 | CCOC(=O)Sc1ncnc2nc[nH]c12 | 3.88 µM | > 100 µM | 27.1 µM | > 100 µM | 0.747 µM | > 100 µM | 3.08 µM | > 100 µM | 0.474 µM | > 100 µM | 9.92 µM | > 100 µM | 3.13 µM | > 100 µM | 0.358 µM | 6.35 µM | 5.75 µM | > 100 µM | 14.4 µM | > 100 µM
14 | Cc1ccc(C(=NN=C(N)N)c2ccc(C)cc2)cc1 | 0.926 µM | 4.36 µM | 0.388 µM | 1.91 µM | 0.845 µM | 16.7 µM | 0.773 µM | 3.59 µM | 0.24 µM | 0.568 µM | 2.21 µM | 8.69 µM | 0.683 µM | 1.93 µM | 0.235 µM | 1.69 µM | 0.359 µM | 1.33 µM | 0.395 µM | 2.61 µM
15 | CCOC(=O)c1cc(/C(=N\O)c2cc(OC)c(OC)c(OC)c2)n2cc(C)cc(C)c12 | 2.34 µM | 5.7 µM | 1.44 µM | 3.98 µM | 1.48 µM | 4.48 µM | 5.38 µM | > 100 µM | 1.74 µM | 4.33 µM | 4.39 µM | > 100 µM | 5.78 µM | > 100 µM | 0.56 µM | 4.57 µM | 2.76 µM | 7.64 µM | 1.99 µM | 6.74 µM
16 | CC1CN1CC(O)C(O)CN1CC1C (configuration not stated) | 13.9 µM | 45.3 µM | 2.13 µM | 13.7 µM | 4.08 µM | > 63 µM | 1.13 µM | > 71.2 µM | 2.52 µM | 10.7 µM | 6.43 µM | 87.1 µM | 6.21 µM | 23.4 µM | 0.053 µM | > 100 µM | 0.319 µM | 13 µM | 3.61 µM | 16.8 µM
17 | CC(C)c1ccc(C(=O)Nc2sc3c(c2C(N)=O)CCC(=O)C3)cc1 | 0.788 µM | 2.43 µM | 1.65 µM | 4.79 µM | 0.795 µM | 2.65 µM | 0.71 µM | 13.3 µM | 0.421 µM | 1.51 µM | 0.352 µM | 1.94 µM | 1.85 µM | 4.23 µM | 0.413 µM | 11 µM | 0.849 µM | 3.73 µM | 2.33 µM | 8.52 µM
18 | COc1ccc(C(C)c2cc3c(cc2OC)OCO3)cc1 (configuration not stated) |  | 4.6 µM |  | 52.2 µM |  | > 100 µM |  | 17.1 µM |  | 0.598 µM |  | > 100 µM |  | 3.62 µM |  | > 5.04 µM |  | 4.69 µM |  | > 100 µM
